Patent US20120115724A1, “METHOD OF CONTROLLING UNDESIRED VEGETATION” (SYNGENTA CROP PROTECTION LLC, priority 2009, published 2012)

Columns and labels:
Assay type in all cases: in vivo
[1] = tested on: POLCO Polygonum convolvulus; experiment: Post-emergence crop and weed test (Example 15); conditions: Fallopia convolvulus, 360 h, after 15 days, read-out: Percentage damage POLCO
Method in brief: (§1)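 Plants grown 14 days in glasshouse pots (22/16 °C day/night, 16 h light, 65% humidity) were sprayed post-emergence with compound formulated as a 5% stock in acetone/Emulsogen EL/NMP/DPG-monoethyl ether, diluted in water with 0.2% X-77. Damage was scored after 15 days (0 = none, 100 = total).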

[2] = tested on: VERPE Veronica persica; experiment: Post-emergence crop and weed test (Example 15); conditions: 360 h, after 15 days, read-out: Percentage damage VERPE
Method in brief: as §1

[3] = tested on: GALAP Galium aparine; experiment: Post-emergence crop and weed test (Example 15); conditions: 360 h, after 15 days, read-out: Percentage damage GALAP
Method in brief: as §1

[4] = tested on: CHEAL Chenopodium album; experiment: Post-emergence crop and weed test (Example 15); conditions: 360 h, after 15 days, read-out: Percentage damage CHEAL
Method in brief: as §1

[5] = tested on: GLXMA Soybean; experiment: Post-emergence crop and weed test (Example 15); conditions: Glycine max, 360 h, after 15 days, read-out: Percentage damage GLXMA
Method in brief: as §1

[6] = tested on: IPOHE Ipomoea hederacea; experiment: Post-emergence crop and weed test (Example 15); conditions: 360 h, after 15 days, read-out: Percentage damage IPOHE
Method in brief: as §1

[7] = tested on: ABUTH Abutilon theophrasti; experiment: Post-emergence crop and weed test (Example 15); conditions: 360 h, after 15 days, read-out: Percentage damage ABUTH
Method in brief: as §1

[8] = tested on: SIDSP Sida spinosa; experiment: Pre-emergence crop and weed test (Example 16); conditions: after 20 days
Method: (§2) Seeds of crop and representative weed species were sown in standard soil in pots. After cultivation for 1 day under controlled conditions in a glasshouse (at 22/16° C., day/night; 16 hours light; 65% humidity), the plants were sprayed. The spray solution was prepared by dissolving the technical active ingredient in acetone containing 10.56 wt % Emulsogen EL, 42.22 wt % N-methylpyrrolidone and 2.22 wt % DPG-monoethyl ether to give a 5% stock solution. This was then diluted with water containing 0.2% (v/v) of the adjuvant X-77 to give the desired treatment concentration.
(§3) The test plants were then grown on under controlled conditions in a glasshouse (at 22/16° C., day/night; 16 hours light; 65% humidity) and watered twice daily. After 20 days the test was evaluated (100=total damage to plant; 0=no damage to plant).
(§4) Species as for Post-Emergence Test.

[9] = tested on: KCHSC Kochia scoparia; experiment: Pre-emergence crop and weed test (Example 16); conditions: after 20 days
Method: as §2, §3, §4

[10] = tested on: AMARE Amaranthus retroflexus; experiment: Pre-emergence crop and weed test (Example 16); conditions: after 20 days
Method: as §2, §3, §4

[11] = tested on: SINAR Sinapis arvensis; experiment: Pre-emergence crop and weed test (Example 16); conditions: after 20 days
Method: as §2, §3, §4

[12] = tested on: POLCO Polygonum convolvulus; experiment: Pre-emergence crop and weed test (Example 16); conditions: after 20 days
Method: as §2, §3, §4

[13] = tested on: GALAP Galium aparine; experiment: Pre-emergence crop and weed test (Example 16); conditions: after 20 days
Method: as §2, §3, §4

[14] = tested on: XANST Xanthium strumarium; experiment: Pre-emergence crop and weed test (Example 16); conditions: after 20 days
Method: as §2, §3, §4

[15] = tested on: EPHHL Euphorbia heterophylla; experiment: Pre-emergence crop and weed test (Example 16); conditions: after 20 days
Method: as §2, §3, §4

[16] = tested on: CHEAL Chenopodium album; experiment: Pre-emergence crop and weed test (Example 16); conditions: after 20 days
Method: as §2, §3, §4

[17] = tested on: GLXMA Soybean; experiment: Pre-emergence crop and weed test (Example 16); conditions: after 20 days
Method: as §2, §3, §4

[18] = tested on: IPOHE Ipomoea hederacea; experiment: Pre-emergence crop and weed test (Example 16); conditions: after 20 days
Method: as §2, §3, §4

[19] = tested on: ABUTH Abutilon theophrasti; experiment: Pre-emergence crop and weed test (Example 16); conditions: after 20 days
Method: as §2, §3, §4

Structure (SMILES): C/C=C/c1c(N)nc(-c2ccc(Cl)c(OC)c2F)nc1C(=O)OC [Compound 3, (E)-4-Amino-2-(4-chloro-2-fluoro-3-methoxy-phenyl)-6-methoxy-carbonyl-5-(prop-1-enyl)-pyrimidine]
- pest or weed control at 125 g/ha ([1]; 125 g/ha): 90%
- pest or weed control at 125 g/ha ([2]; 125 g/ha): 80%
- pest or weed control at 125 g/ha ([3]; 125 g/ha): 70%
- pest or weed control at 125 g/ha ([4]; 125 g/ha): 90%
- plant injury at 125 g/ha ([5]; 125 g/ha): 0%
- pest or weed control at 125 g/ha ([6]; 125 g/ha): 80%
- pest or weed control at 125 g/ha ([7]; 125 g/ha): 80%
- Percentage damage SIDSP ([8]; 30 g/ha): 90%
- Percentage damage KCHSC ([9]; 30 g/ha): 100%
- Percentage damage AMARE ([10]; 30 g/ha): 80%
- Percentage damage SINAR ([11]; 30 g/ha): 40%
- Percentage damage POLCO ([12]; 30 g/ha): 50%
- Percentage damage GALAP ([13]; 30 g/ha): 100%
- Percentage damage XANST ([14]; 30 g/ha): 10%
- Percentage damage EPHHL ([15]; 30 g/ha): 100%
- Percentage damage CHEAL ([16]; 30 g/ha): 100%
- Percentage damage GLXMA ([17]; 30 g/ha): 0%
- Percentage damage IPOHE ([18]; 30 g/ha): 0%
- Percentage damage ABUTH ([19]; 30 g/ha): 30%

Structure (SMILES): C/C=C\c1c(N)nc(-c2ccc(Cl)c(OC)c2F)nc1C(=O)OC [Compound 4, (Z)-4-Amino-2-(4-chloro-2-fluoro-3-methoxy-phenyl)-6-methoxy-carbonyl-5-(prop-1-enyl)-pyrimidine]
- pest or weed control at 8 g/ha ([1]; 8 g/ha): 70%
- pest or weed control at 8 g/ha ([2]; 8 g/ha): 80%
- pest or weed control at 8 g/ha ([3]; 8 g/ha): 30%
- plant injury at 8 g/ha ([5]; 8 g/ha): 20%
- pest or weed control at 8 g/ha ([6]; 8 g/ha): 70%
- pest or weed control at 8 g/ha ([7]; 8 g/ha): 60%
- Percentage damage SIDSP ([8]; 125 g/ha): 100%
- Percentage damage AMARE ([10]; 125 g/ha): 100%
- Percentage damage SINAR ([11]; 125 g/ha): 50%
- Percentage damage POLCO ([12]; 125 g/ha): 20%
- Percentage damage GALAP ([13]; 125 g/ha): 80%
- Percentage damage XANST ([14]; 125 g/ha): 30%
- Percentage damage EPHHL ([15]; 125 g/ha): 100%
- Percentage damage CHEAL ([16]; 125 g/ha): 40%
- Percentage damage GLXMA ([17]; 125 g/ha): 10%
- Percentage damage IPOHE ([18]; 125 g/ha): 50%
- Percentage damage ABUTH ([19]; 125 g/ha): 100%

Structure (SMILES): C/C=C\c1c(N)nc(-c2ccc(Cl)c(N(C)C)c2F)nc1C(=O)OC [Compound 5, (Z)-4-Amino-2-(4-chloro-3-dimethylamino-2-fluorophenyl)-6-methoxy-carbonyl-5-(prop-1-enyl)-pyrimidine]
- pest or weed control at 30 g/ha ([1]; 30 g/ha): 90%
- pest or weed control at 30 g/ha ([2]; 30 g/ha): 60%
- pest or weed control at 30 g/ha ([4]; 30 g/ha): 80%
- plant injury at 30 g/ha ([5]; 30 g/ha): 0%
- pest or weed control at 30 g/ha ([6]; 30 g/ha): 0%
- pest or weed control at 30 g/ha ([7]; 30 g/ha): 40%
- Percentage damage SIDSP ([8]; 125 g/ha): 90%
- Percentage damage KCHSC ([9]; 125 g/ha): 30%
- Percentage damage AMARE ([10]; 125 g/ha): 90%
- Percentage damage SINAR ([11]; 125 g/ha): 40%
- Percentage damage POLCO ([12]; 125 g/ha): 0%
- Percentage damage GALAP ([13]; 125 g/ha): 100%
- Percentage damage XANST ([14]; 125 g/ha): 40%
- Percentage damage EPHHL ([15]; 125 g/ha): 100%
- Percentage damage CHEAL ([16]; 125 g/ha): 100%
- Percentage damage GLXMA ([17]; 125 g/ha): 0%
- Percentage damage IPOHE ([18]; 125 g/ha): 50%
- Percentage damage ABUTH ([19]; 125 g/ha): 70%
